Results taken from patent US4500516A, “Antibacterial pharmaceutical composition” (priority 1982, dated 1985).
Structures can show the parent of a compound that is named as a salt. Where two headings read alike, the source gives them in different places.

Columns and labels:
Bac. mycoides = test: microbe, parasite or virus in culture; format: cell-based; conditions: Bacillus mycoides, read-out: bacteriostatic concentration
[1] = system: infectious inflammatory diseases; conditions: prior-art drugs; cited from earlier work
[2] = system: pathogenic microorganisms; conditions: cited from earlier work
[3] = system: Staphylococcus aureus haemolyticus; test: bacteriostatic concentration; format: cell-based
[4] = cited from earlier work
[5] = rabbit, in vivo, po, 5 mg/kg, cited from earlier work; for total quantity removed, of the total quantity administered: 2880 min
Bac. coil = test: bacteriostatic concentration; format: cell-based
white mice = conditions: cited from earlier work
[6] = rabbit, in vivo, 50 mg/kg
[7] = cited from earlier work; remark: listed apart in the source
in vivo [8] = conditions: rabbit, blood
[9] = prior-art drugs; cited from earlier work
in vivo [10] = conditions: rabbit, urine, 50 mg/kg
[11] = cited from earlier work; remark: listed apart in the source
[12] = cited from earlier work; remark: listed apart in the source

Q: For `O=C1CN(N=CC=Cc2ccc([N+](=O)[O-])o2)C(=O)N1` [Solafur, potassium salt of N-[β-(5'-nitrofuryl-2')-acrylidene]-1-aminohydantoin], which MIC (Bac. mycoides) is on record?
A: 2.5 µg/mL

Q: What about the spectrum of action [1] of the same compound?
A: broader spectrum of action compared to Furagin

Q: And the “synergistic action with antibiotics” value ([2]; a range of antibiotics, most pathogenic microorganisms)?
A: capability of producing synergistic action with a range of antibiotics upon most pathogenic microorganisms

Q: What about the MIC [3] of the same compound?
A: 2.5 µg/mL

Q: And the “side effects on faster administration” value ([4]; in vivo, iv)?
A: headache and nausea

Q: What about the intolerance ([4]; in vivo) of the same compound?
A: in some cases this pharmaceutical composition is observed to meet with intolerance

Q: What about the “total quantity removed, of the total quantity administered” value [5] of the same compound?
A: 2.83±0.48%

Q: What about the “concentrations in the urine, Furagin versus Solafur” value [5] of the same compound?
A: roughly equal

Q: What about the MIC (Bac. coil) of the same compound?
A: 2.5 µg/mL

Q: And the LD50 (white mice; mouse, in vivo, po)?
A: 390 mg/kg

Q: And the “total excretion of Solafur with urine” value [6]?
A: 3.43 ± 0.3 mg

Q: And the solubility in water [7]?
A: higher than that of the aforementioned Furagin

Q: And the concentration at 0.25 h (in vivo [8])?
A: 2.8 µg/mL

Q: For `O=C1CN(N=Cc2ccc([N+](=O)[O-])o2)C(=O)N1` [Nitrofurantoin, 1-(5'-nitrofurfurylideneamino)-hydantoin], which toxicity [9] is on record?
A: noticeably toxic

Q: And the spectrum of action [1]?
A: relatively limited spectrum of action

Q: What about the bacteriostatic concentration value ([2]; in words) of the same compound?
A: comparatively high

Q: What about the intolerance ([4]; medical practice) of the same compound?
A: Sometimes this pharmaceutical composition is observed to meet with intolerance

Q: What about the Cmax (in vivo [10]) of the same compound?
A: 610 µg/mL

Q: And the Tmax (in vivo [10])?
A: 1 h

Q: And the LD50 (white mice; white mice, oral administration)?
A: 166.7 mg/kg

Q: What about the “removal from the organism” value ([11]; in vivo) of the same compound?
A: quickly removed from the organism

Q: What about the “absorption from the gastrointestinal tract” value ([11]; oral) of the same compound?
A: quickly absorbable from the gastrointestinal tract

Q: What about the “drug concentration in the blood and in the urine” value ([11]; oral) of the same compound?
A: capable of reaching a level sufficient to produce a therapeutic effect

Q: Which spectrum of action [1] does the source give for `O=C1CN(N=CC=Cc2ccc([N+](=O)[O-])o2)C(=O)N1` [Furagin, N-[β-(5'-nitrofuryl-2')-acrylidene]-1-aminohydantoin] here?
A: wider spectrum of therapeutic action than the aforesaid Nitrofurantoin and Furadantin

Q: What about the pK [12] of the same compound?
A: 6

Q: And the intolerance ([4]; in vivo)?
A: in quite a number of cases, said pharmaceutical composition is observed to meet with intolerance

Q: What about the “total quantity removed, of the total quantity administered” value [5] of the same compound?
A: 2.75±0.41%

Q: What about the “concentrations in the urine, Furagin versus Solafur” value [5] of the same compound?
A: roughly equal

Q: And the solubility in water [7]?
A: very poorly soluble in water
